Test results published in patent US20080175880A1, “Pyridoxal-5-Phosphate And Stent For The Treatment And Prevention Of Atherosclerosis And Restenosis” (MEIDCURE INTERNATIONAL INC., priority 2004, published 2008).

Tests used:
HEK 293 P2X7 cells = assay: ATP/BzATP induced apoptosis, Cell Death Detection ELISA; format: cell-based, human; details: for induction of cell apoptosis: P2X7 expressing cells
Procedure: Cell Lines—HEK 293 cell line (human), is stabily transfected with the P2X7 receptor [9] to produce HEK 293 P2X7 cells.
(§1) Apoptosis—HEK-293 P2X7 (human) cells are treated with ATP and/or BzATP to induce apoptosis (Wen et al., 2003). The level of apoptosis is determined using a Cell Death Detection ELISA, which is based on DNA laddering. Various doses of P5P are added to the cells to determine its ability to inhibit ATP induced apoptosis. OxATP (Murgia et al., 1993), PPADS (Chessell I P et al., 1998) and/or KN-62 (Humphreys B D et al., 1998) are used as positive controls.

LPS primed THP-1 cells = assay: ATP induced IL-1β secretion, ELISA; format: cell-based; details: for inhibition of IL-1β secretion: LPS primed THP-1 cells treated with ATP
Procedure: LPS primed THP-1 cells are treated with ATP to induced IL-1β secretion (Grahames C B A et-al (1999) Br J Pharm 127:1915-1921). IL-1β secretion levels are determined by ELISA. Various doses of P5P are added to the cells to determine its ability to Inhibit the ATP induced IL-1β secretion. OxATP (Grahames et al., 1999), PPADS (Grahames et al., 1999), and/or KN-62 (Grahames et al., 1999) are used as positive controls.

[1] = Rabbit aortic balloon-injury model; format: in vivo; details: 10 mg/kg daily by gavage
Procedure: Rabbit Aortic Balloon-Injury Model—Forty male New Zealand White rabbits (2.5-3.0 kg) are used. Rabbits are fed regular rabbit chow (control, 20 rabbits) or a 1% cholesterol diet (treated, 20 rabbits) for 8 weeks. Half of each group receives 10 mg/kg P5P (provided by CanAm Bioresearch Inc.) daily by gavage, with the other half receiving saline by gavage. After 4 weeks, a 3F Fogarty embolectomy catheter (Baxter) is inserted into the right femoral artery of each rabbit, advanced 25 cm proximally, and then withdrawn to the origin with the balloon inflated to 0.2 mL saline, a step repeated twice (Lau et al., Probucol promotes functional reendothelialization in balloon-injured rabbit aortas. Circulation 2003; 107(15):2031-6). At 8 weeks, the right and left femoral arteries are harvested from each animal (left femoral arteries serve as uninjured controls). Segments for histology are pressure-perfused with formalin, stored in. 70% (vol/vol) ethanol, and then embedded in paraffin.
Histology—One 5 μm thick cross-section is taken from each of 6 segments of the femoral aorta and stained with hematoxylin and eosin. Morphometric analysis of the 6 arterial cross-sections per animal is performed using Imagespace software (Molecular Dynamics). The intimal and medial areas of each arterial cross-section specimen is measured, and the average intimal/medial area ratio is determined for each group.
Inflammatory Markers, Lipid Profile, and Homocysteine Levels—At the beginning and end of the study, and every 2 weeks throughout, blood samples are collected through a catheter inserted in the ear artery of conscious rabbits. Plasma interleukin-6 (IL-6) levels are measured with quantitative sandwich enzyme immunoassay employing commercial kits for rats (R&D Systems) (Oubina et al., Synergistic effect of angiotensin-converting enzyme (ACE) and 3-hydroxy-3-methylglutaryl-CoA (HMG-CoA) reductase inhibition on inflammatory markers in atherosclerotic rabbits. Clin Sci (Lond). 2003; 105(6):655-62). CRP plasma levels are measured with an immunoassay kit for rabbits (Alpco Diagnostics). Plasma cholesterol levels are measured using colorimetric reactions employing commercial kits (Roche Diagnostics). Homocysteine levels are determined by high performance liquid chromatography, as previously described (Zhloba and Blashko, Liquid chromatographic determination of total homocysteine in blood plasma with photometric detection. J Chromatogr B Analyt Technol Biomed Life Sci. 2004; 800(1-2):275-80).
Evaluation of Endothelial Function by Ultrasound—Ultrasound evaluation of endothelial function of the femoral aorta is performed at the beginning and end of the study, and every 2 weeks throughout (Drolet et al., Early endothelial dysfunction in cholesterol-fed rabbits: a non-invasive in vivo ultrasound study. Cardiovasc Ultrasound. 2004; 2(1):10). Rabbits are sedated using midazolam (0.5 mg/kg), butorphanol (0.5 mg/kg) and ketamine (30 mg/kg) IM. Marginal ear vein and artery are cannulated for drug infusions and arterial blood pressure monitoring, respectively. Heart rate is monitored continuously throughout the procedure. […]
Once the imaging of the aorta is optimal, the animals receive the following drug perfusions I.V. sequentially for 2 minutes each: 1) saline at 1 ml/min; 2) acetylcholine (Ach) at 0.05 μg/ml/min and Ach at 0.5 μg/ml/min. […] Images of the femoral aorta are recorded continuously through the entire procedure on standard S-VHS videotape for off-line analysis. […]

[2] = Double-blind placebo-controlled trial in PCI (angioplasty) patients; format: in vivo, human
Procedure: Study Design and Population—The study is a multicenter, double-blind, placebo-controlled, randomized trial. The protocol is approved by institutional review boards prior to commencement. Patients referred for elective percutaneous coronary interventional (PCI) are evaluated 14 days before their scheduled procedures. Eligible patients are asked to provide written informed consent and undergo medical history, physical examination, electrocardiography, hematology, and clinical biochemistry. Patients are eligible if they are scheduled to undergo PCI with or without stenting on one native coronary artery and have one de novo target lesion with luminal narrowing 50%. Subjects who have severe liver disease or serum creatinine 200 μmol/L; myocardial infarction within the past 7 days; left main stenosis >50%; ejection fraction <30%; have had PCI for another lesion in the preceding 6 months; are being treated for a restenotic lesion; or have scheduled atherectomy, brachytherapy, or PCI of a bypass graft before randomization are excluded. A total of 120 patients are enrolled, with 60 randomized to receive P5P and 60 to receive placebo.
The primary endpoint is clinical restenosis requiring target lesion revascularization at six months. The secondary end points are major adverse cardiac events (MACE) including death, myocardial infarction and revascularization.
Randomization and Drug Regimen—Patients are randomly assigned to receive P5P (provided by CanAm Bioresearch Inc.) 750 mg once day or placebo beginning 14 days before scheduled PCI. P5P or matched placebo is administered as 3 tablets given once daily. All patients will also receive an extra dose of P5P or matched placebos on the evening before PCI, according to random treatment assignment. After PCI, all patients are maintained on their assigned study regimen for 4 additional weeks.
PCI and Follow-Up Evaluation—PCI with or without stent placement and post-PCI management will be performed according to current clinical practice. ECGs are obtained before PCI, immediately thereafter, and the morning after PCI. Creatine kinase, creatine kinase-MB fraction, and troponin I are measured on the evening after PCI and the following morning. Patients are discharged after PCI with 4 weeks of the study medication. Aspirin 325 mg/d is given from the time of recruitment and for the entire study duration. All-patients treated with stents also receive clopidogrel 75 mg/d for 30 days after PCI. Patients will return at 1 Month, 3 months and 6 months for clinical evaluation and drug accountability. Patients are assessed for ischemic symptoms and adverse events, whether or not they were related to the study medication or PCI procedure. Blood chemistry values assessed at baseline are measured again at PCI discharge and at follow-up visits. Patients are readmitted for follow-up catheterization and IVUS 5 to 7 months after PCI. […]
IVUS Examinations and Measurements—IVUS examinations are performed with 30-MHz, 3.2 F ultrasound catheters (Tardif et al., Canadian Antioxidant Restenosis Trial (CART-1) Investigators. Effects of AGI-1067 and probucol after percutaneous coronary interventions. Circulation. 2003; 107(4):552-8). IVUS studies are recorded before, PCI whenever possible and are always performed after PCI (after final balloon inflation) and at follow-up (before any subsequent intervention). […] The preintervention, post-PCI, and follow-up studies are analyzed side by side. […]

[3] = system: hepatic cytochrome enzymes; assay: Inhibition of hepatic cytochrome enzymes; format: in vitro ADME
[4] = Tolerability and toxicity in animal and human studies; format: in vivo
[5] = system: freshly isolated adult rat cardiomyocytes; details: previous finding of the inventors (refs 89, 93); cited from earlier work
[6] = system: isolated perfused rat hearts; details: previous finding of the inventors (refs 89, 90); cited from earlier work
human platelet = details: cited from earlier work
wild type HEK 293 cells = assay: ATP/BzATP induced apoptosis in wild type control cells; format: cell-based, human; details: wild type cells without P2X7
Procedure: as §1
Control—All the experiments are carried out in wild type HEK 293 cells as a control.

[7] = cited from earlier work
[8] = 750 mg once a day from 14 days before to 4 weeks after PCI

For `Cc1ncc(COP(=O)(O)O)c(C=O)c1O` [P5P, Pyridoxal-5′-phosphate], the “inhibition of ATP mediated cell apoptosis” value (HEK 293 P2X7 cells; P2X7 expressing HEK 293 cells, vs untreated cells) was “inhibits”, the “inhibition of IL-1β secretion” value (LPS primed THP-1 cells) was “inhibits” and the CRP levels ([1]; 8 weeks) was “lowered”. For the same compound, the homocysteine levels ([1]; 8 weeks) was “lowered”, the lipid profile ([1]; 8 weeks) was “improved” and the incidence of restenosis ([1]; balloon injury) was “decreased incidence”. The endothelial function ([1]; ultrasound) was “improved”, the CRP levels [2, 8] was “lowered” and the homocysteine levels [2, 8] was “lowered”. The “incidence of restenosis following PCI” value [2, 8] was “decreased incidence”, the lipid profile [2, 8] was “improved” and the endothelial function ([2]; 750 mg once a day, brachial artery ultrasound) was “improved”. For the same compound, the “inhibition of hepatic cytochrome enzymes” value [3] was “does not inhibit”, the tolerability [4] was “easily tolerated” and the toxicity [4] was “low toxicity”. The “inhibition of ATP induced calcium influx” value [5] was “inhibits”, the “inhibition of positive inotropic effects of ATP” value [6] was “inhibits” and the “inhibition of prostaglandin E1 and theophylline-induced platelet aggregation” value (human platelet; in vitro (ref 123)) was “inhibit”. For the same compound, the “inhibition of platelet aggregation and 14C-5HT release” value (human platelet; induced by ADP, thrombin, adrenaline, platelet activating factor, arachidonic acid, in vitro (ref 122)) was “inhibit” and the “inhibition of thromboxane B2 generation” value (human platelet; induced by all of these agents except arachidonic acid (ref 122)) was “inhibited”.
With `Nc1ncnc2c1ncn2[C@@H]1O[C@H](COP(=O)(O)OP(=O)(O)OP(=O)(O)O)[C@@H](O)[C@H]1O` [ATP, adenosine triphosphate] the “induction of cell apoptosis” value (HEK 293 P2X7 cells) was “induce”, the “induction of cell apoptosis” value (wild type HEK 293 cells) was “do not induce” and the “induction of IL-1β secretion” value (LPS primed THP-1 cells; LPS primed THP-1 cells) was “induces”.
With BzATP the “induction of cell apoptosis” value (HEK 293 P2X7 cells) was “induce” and the “induction of cell apoptosis” value (wild type HEK 293 cells) was “do not induce”.
For `Nc1ncnc2c1ncn2[C@@H](C=O)O[C@@H](C=O)COP(=O)(O)OP(=O)(O)OP(=O)(O)O` [OxATP], the “inhibition of IL-1β secretion” value (LPS primed THP-1 cells) was “inhibits”.
In the case of `Cc1ncc(CO)c(CO)c1O` [pyridoxine], the “plasma antithrombin III (AT III) activity” value ([7]; atherosclerotic patients (ref 16)) is listed as “significantly increased”, the “AT III activity” value ([7]; patients with genetic homocysteinuria (ref 125)) is listed as “increase” and the bleeding time ([7]; patients, 100 mg twice daily for 15 days (ref 124)) is listed as “significantly prolonged”. For the same compound, the “platelet aggregation induced with ADP or epinephrine” value ([7]; plasma from patients, 100 mg twice daily for 15 days (ref 124)) was “significantly inhibited”.
With `CN([C@@H](Cc1ccc(OS(=O)(=O)c2cccc3cnccc23)cc1)C(=O)N1CCN(c2ccccc2)CC1)S(=O)(=O)c1cccc2cnccc12` [KN-62] the “inhibition of IL-1β secretion” value (LPS primed THP-1 cells) was “inhibits”.
For `Cc1nc(N=Nc2ccc(S(=O)(=O)O)cc2S(=O)(=O)O)c(COP(=O)(O)O)c(C=O)c1O` [PPADS], the “inhibition of IL-1β secretion” value (LPS primed THP-1 cells) was “inhibits”.
